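Test compounds were applied to cells in 96-well plates for 48 hours at 5 doses. Here, GI50 denotes the concentration required for 50% inhibition of growth.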 The source made the active and inactive calls. Rule as the data show it: active = GI50 up to about 1.1 µM and inactive = higher.
Legend:
Experiment in all cases: NCI tumour cell line growth inhibition, 48 h
OVCAR-5 = tested on: OVCAR-5
NCI-H23 = tested on: NCI-H23
SN12C = tested on: SN12C
Hs-578T = tested on: Hs-578T
HCC 2998 = tested on: HCC 2998
SF-268 = tested on: SF-268
M14 = tested on: M14
HT-29 = tested on: HT-29
SF-539 = tested on: SF-539
CCRF-CEM = tested on: CCRF-CEM
NCI-H226 = tested on: NCI-H226
HCT-15 = tested on: HCT-15
MCF7 = tested on: MCF7
UACC-257 = tested on: UACC-257
A498 = tested on: A498
SR = tested on: SR
RPMI-8226 = tested on: RPMI-8226
SK-MEL-28 = tested on: SK-MEL-28
ACHN = tested on: ACHN
MOLT-4 = tested on: MOLT-4

| Compound | GI50 (OVCAR-5) | GI50 (NCI-H23) | GI50 (SN12C) | GI50 (Hs-578T) | GI50 (HCC 2998) | GI50 (SF-268) | GI50 (M14) | GI50 (HT-29) | GI50 (SF-539) | GI50 (CCRF-CEM) | GI50 (NCI-H226) | GI50 (HCT-15) [µM] | GI50 (MCF7) | GI50 (UACC-257) | GI50 (A498) | GI50 (SR) | GI50 (RPMI-8226) | GI50 (SK-MEL-28) | GI50 (ACHN) | GI50 (MOLT-4) |
| --- | --- | --- | --- | --- | --- | --- | --- | --- | --- | --- | --- | --- | --- | --- | --- | --- | --- | --- | --- | --- |
| Nc1nc(O)c(N)c(NCCOCP(=O)(O)O)n1 | > 100 µM (inactive) | > 57.8 µM (inactive) | > 100 µM (inactive) | > 100 µM (inactive) | > 100 µM (inactive) | > 100 µM (inactive) | > 100 µM (inactive) | > 100 µM (inactive) | > 100 µM (inactive) | > 100 µM (inactive) | > 100 µM (inactive) | > 100 | > 100 µM (inactive) | > 100 µM (inactive) | > 100 µM (inactive) | > 100 µM (inactive) | > 100 µM (inactive) | > 100 µM (inactive) | > 100 µM (inactive) | > 100 µM (inactive) |
| NS(=O)(=O)c1ccc(NC(=O)Nc2cccc3ccccc23)cc1 | > 100 µM (inactive) | 34.4 µM (inactive) | 45.5 µM (inactive) | 42.2 µM (inactive) | 27.6 µM (inactive) | 19.9 µM (inactive) | 86.9 µM (inactive) | 60.3 µM (inactive) | 23.8 µM (inactive) | > 100 µM (inactive) | 27.2 µM (inactive) | 91.4 | 31.2 µM (inactive) | > 100 µM (inactive) | 22.5 µM (inactive) | 72.3 µM (inactive) | > 100 µM (inactive) | 39.4 µM (inactive) | 33.2 µM (inactive) | > 100 µM (inactive) |
| COc1cccc2c3cccc(OC)c3c3[nH]cnc3c12 | 5.37 µM (inactive) | 1.84 µM (inactive) | 5.45 µM (inactive) | 0.394 µM (active) | 3.46 µM (inactive) | 4.54 µM (inactive) | 1.71 µM (inactive) | 1.64 µM (inactive) | 1.32 µM (inactive) | 0.923 µM (active) | 15.9 µM (inactive) | 1.76 | 1.58 µM (inactive) | 17.7 µM (inactive) | 18.1 µM (inactive) | 2.16 µM (inactive) | 2.53 µM (inactive) | 5.24 µM (inactive) | 8.81 µM (inactive) | 2.29 µM (inactive) |
| C=C1[C@H](OCC(C)C)[C@@H](OC(=O)C(C)CC)[C@@H](O)C(C)(C)/C=C/[C@H](C)C(=O)[C@@]2(O)C[C@H](C)[C@H](O)[C@@H]2[C@H]1OC(=O)C(C)CC (some centres undefined) | 6.37 µM (inactive) | 5.2 µM (inactive) | 7.29 µM (inactive) | 1.66 µM (inactive) | 2.84 µM (inactive) | 4.78 µM (inactive) | 2.15 µM (inactive) | 2.56 µM (inactive) | 3.05 µM (inactive) | 0.564 µM (active) | 5.73 µM (inactive) | 7.82 | 5.92 µM (inactive) | 5.22 µM (inactive) | 3.28 µM (inactive) | 3.84 µM (inactive) | 0.516 µM (active) | 10.2 µM (inactive) | 3.02 µM (inactive) | 2 µM (inactive) |
| O=[N+]([O-])c1ccc2nc(=S)[nH]n2c1 | > 100 µM (inactive) | > 100 µM (inactive) | > 100 µM (inactive) | > 100 µM (inactive) | > 100 µM (inactive) | > 100 µM (inactive) | > 100 µM (inactive) | > 100 µM (inactive) | > 100 µM (inactive) | > 100 µM (inactive) | > 100 µM (inactive) | > 100 | > 100 µM (inactive) | > 100 µM (inactive) | > 100 µM (inactive) | > 100 µM (inactive) | > 100 µM (inactive) |  | > 100 µM (inactive) | > 100 µM (inactive) |
| N[C@H]1CCCC[C@@H]1N1C(=O)c2ccccc2C1(O)c1ccc(Cl)cc1 (some centres undefined) | 15.1 µM (inactive) | 14.9 µM (inactive) | 13.7 µM (inactive) | 17 µM (inactive) | 1.86 µM (inactive) | 12.4 µM (inactive) | 9.44 µM (inactive) | 4.75 µM (inactive) | 10.4 µM (inactive) | 2.94 µM (inactive) | 15.9 µM (inactive) | 13.4 | 12.3 µM (inactive) | 4.15 µM (inactive) | 13.7 µM (inactive) | 13.9 µM (inactive) | 2.61 µM (inactive) | 3.78 µM (inactive) | 13.7 µM (inactive) | 5.79 µM (inactive) |
| COC1C(O)C(O[C@H]2CC[C@@]3(C)C(CC[C@@H]4[C@@H]3CC[C@]3(C)[C@@H](C(C)OC5OC(CO)C(O)C(O)C5O)CC[C@]43O)C2)OC(C)C1OC1OC(CO)C(O)C(O)C1O (some centres undefined) | > 100 µM (inactive) | > 100 µM (inactive) | > 100 µM (inactive) | > 100 µM (inactive) | > 100 µM (inactive) | > 100 µM (inactive) | > 100 µM (inactive) | > 100 µM (inactive) | > 100 µM (inactive) | > 100 µM (inactive) | > 100 µM (inactive) | > 100 | > 100 µM (inactive) | > 100 µM (inactive) | > 100 µM (inactive) | > 100 µM (inactive) | > 100 µM (inactive) | > 100 µM (inactive) | > 100 µM (inactive) | > 100 µM (inactive) |

— ChEMBL document CHEMBL1201862, “PubChem BioAssay data set” (2004)
